In patent US8686003B2, “Tissue non-specific alkaline phosphatase inhibitors and uses thereof for treating vascular calcification” (Sanford-Burnham Medical Research Institute, priority 2007, dated 2014):

Experiments:
[1] = target: T1, tissue-nonspecific alkaline phosphatase (TNAP) (Homo sapiens, UniProt P05186); test: TNAP inhibition screening assay (colorimetric pNPP / luminescence CDP-star), IC50; assay type: biochemical; details: Tables A-H; tissue-nonspecific alkaline phosphatase inhibitors
T1 construct: made in house; host or cells: COS-1 cells, transient expression; dialyzed serum-free conditioned medium
T1 sequence (P05186 18-502 limits assumed): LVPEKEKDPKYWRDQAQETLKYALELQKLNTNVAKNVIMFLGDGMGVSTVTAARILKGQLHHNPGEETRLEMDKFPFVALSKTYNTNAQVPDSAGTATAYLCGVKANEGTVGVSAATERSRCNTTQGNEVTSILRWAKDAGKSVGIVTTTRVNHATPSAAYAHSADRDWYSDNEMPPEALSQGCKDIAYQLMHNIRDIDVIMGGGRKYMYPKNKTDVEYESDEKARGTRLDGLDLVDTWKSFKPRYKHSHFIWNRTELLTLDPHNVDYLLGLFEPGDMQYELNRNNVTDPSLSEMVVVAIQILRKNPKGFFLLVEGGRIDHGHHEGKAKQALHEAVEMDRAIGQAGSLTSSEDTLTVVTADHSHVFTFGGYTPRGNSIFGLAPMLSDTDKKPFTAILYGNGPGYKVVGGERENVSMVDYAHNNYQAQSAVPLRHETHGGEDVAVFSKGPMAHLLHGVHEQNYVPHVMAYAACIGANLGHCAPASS
Description: (§1) Expression plasmids containing a secreted epitope-tagged TNAP, PLAP and IAP were transfected into COS-1 cells for transient expression using a standard electroporation method. Medium was replaced to Opti-MEM 24 hours later, and the serum free media containing secreted proteins were collected 60 hours after electroporation. Conditioned medium was dialyzed against TBS containing 1 mM MgCl2 ad 20 μM ZnCl2 (to remove phosphate) and filtrated with a 2 μm cellulose acetate filter.
A TNAP stock solution was diluted 120-fold and about 12 ul of diluted TNAP solution were dispensed into 96 well microtiter plates with half area bottom (Costar, Corning, N.Y.) by an auto dispenser (Matrix, Hudson, N.H.). A robotic liquid handler, Biomek™ FX (Beckman Coulter, Fullerton, Calif.) dispensed about 2.5 μl of each compound (dissolved in 10% DMSO) from the library plates. Plates were incubated at room temperature for at least one hour to allow TNAP to interact with each compound prior to addition of about 10.5 μl substrate solution (1.19 mM pNPP). After about 30 minutes of incubation, A405 nm was measured with a microtiter plate reader, Analyst™ HT (Molecular Devices, Sunnyvale, Calif.). Both the enzyme (TNAP) and substrate (pNPP) solution were made in diethanolamine (DEA) buffers; the final reaction contains 1M DEA-HCl buffer, pH about 9.8, containing about 1 mM MgCl2 and about 20 μM ZnCl2.
Compound aliquots (4 uL @ 100 uM in 10% DMSO) were added with about 8 uL of TNAP working solution, prepared by 800-fold dilution of TNAP in 2.5-fold assay buffer (250 mM DEA, pH 9.8, 2.5 mM MgCl2, 0.05 mM ZnCl2). CDP-star substrate solution (about 8 uL of 125 uM in water) was added to each well. […] Plates (white 384-well small volume Greiner 784075) were incubated at room temperature for about 0.5 hour and luminescence signal was measured using an EnVision plate reader (PerkinElmer).

human TNAP = target: T2, human TNAP (Homo sapiens, UniProt P05186); test: Enzyme kinetic experiments, Ki and mechanism of TNAP inhibition; assay type: biochemical; details: Tables D and E; pH not given; read-out: Ki
T2 construct: made in house; host or cells: COS-1 cells, transient expression; dialyzed serum-free conditioned medium
T2 sequence (P05186 18-502 limits assumed): T1 sequence (P05186 18-502 limits assumed)
Description: as §1
[…] TNAP, PLAP and IAP activities were adjusted to an approximate ΔA405 nm, equivalent to 1, measured after 30 min. Residual AP activity in the presence of inhibitors was expressed as percentage of the control activity. To investigate the mechanism of inhibition, double reciprocal plots of enzyme activity (expressed as mA405 nm min^−1) vs. substrate concentration were constructed, in the presence of various concentrations of added inhibitors (0-30 μM). The y-axis intercepts of the 1/v vs. 1/[S] plots, were then plotted vs. [I] to graphically extract Ki values as the x-intercept in this plot. […] Inhibitors were further tested and sorted based on their kinetic properties at pH 7.4 using PPi, the relevant natural substrate of TNAP. […] Amounts of released phosphate were measured using the Biomol Green Reagent (Biomol Research Laboratories, Inc., Plymouth Meeting, Pa.).

| Structure (SMILES) | IC50 [1] [µM] | Ki (human TNAP) [µM] |
| --- | --- | --- |
| O=C(O)c1cc(-c2ccccc2Cl)n[nH]1 [Compound A1, 3-(2-chlorophenyl)-1H-pyrazole-5-carboxylic acid] | 0.68 | – |
| COC(=O)c1cc(-c2c[nH]c3ccccc23)[nH]n1 [Compound A2, methyl 3-(1H-indol-3-yl)-1H-pyrazole-5-carboxylate] | 0.81 | – |
| O=C(O)c1cc(-c2ccc(Cl)cc2)n[nH]1 [Compound A3, 3-(4-chlorophenyl)-1H-pyrazole-5-carboxylic acid] | 0.95 | – |
| COC(=O)c1cc(-c2ccccc2)n[nH]1 [Compound A4, methyl 3-phenyl-1H-pyrazole-5-carboxylate] | 0.97 | – |
| Oc1cc(-c2cccc3ccccc23)n[nH]1 [Compound A5, 3-(napthalen-1-yl)-1H-pyrazol-5-ol] | 3.24 | – |
| Nc1[nH]nc(-c2ccc(Br)cc2)c1Cl [Compound A6, 3-(4-bromophenyl)-4-chloro-1-H-pyrazol-5-amine] | 6.51 | – |
| Cn1cccc1-c1cc(C(=O)O)[nH]n1 [Compound A7, 3-(1-methyl-1H-pyrrol-2-yl)-1H-pyrazole-5-carboxylate] | 10.2 | – |
| COC(=O)c1cc(-c2ccc(Br)cc2)n[nH]1 [Compound A8, methyl 3-(4-bromophenyl)-1H-pyrazole-5-carboxylate] | 0.31 | – |
| CCCCc1[nH]nc2c1C(=O)CC(C)(C)C2 [Compound B1, 3-butyl-6,6-dimethyl-6,7-dihydro-2H-indazol-4(5H)-one] | 1.51 | – |
| CC1(C)CC(=O)c2c(n[nH]c2-c2cccs2)C1 [Compound B2, 6,6-dimethyl-3-(thiophen-2-yl)-6,7-dihydro-2H-indazol-4(5H)-one] | 3.67 | – |
| CC1(C)CC(=O)c2c(n[nH]c2Cc2ccccc2)C1 [Compound B3, 3-benzyl-6,6-dimethyl-6,7-dihydro-2H-indazol-4(5H)-one] | 0.57 | – |
| Cc1cc(O)oc2nnc(-c3ccccc3)c1-2 [Compound B4, 4-methyl-3-phenylpyrano[2,3-c]pyrazol-6-ol] | 0.99 | – |
| COc1ccc(-c2nnc3oc(O)cc(C)c2-3)cc1 [Compound B5, 3-(4-methoxyphenyl)-4-methylpyrano[2,3-c]pyrazol-6-ol] | 1.35 | – |
| COCc1n[nH]c2c1C(c1cc(OC)c(O)c(OC)c1)C(C#N)=C(N)O2 (stereo not shown) [Compound B6, 6-amino-4-(4-hydroxy-3,5-dimethoxyphenyl)-3-(methoxymethyl)-1,4-dihydropyrano[2,3-c]pyrazole-5-carbonitrile] | 5.25 | – |
| Cc1cc(NC(=O)COC(=O)c2[nH]nc3ccccc23)no1 [Compound B8, 2-(5-methylisoxazol-3-ylamino)-2-oxoethyl 2H-indazole-3-carboxylate] | 9.43 | – |
| COc1ccc2c(c1)CCc1c-2n[nH]c1C(=O)O [Compound B9, 7-methoxy-4,5-dihydro-2H-benzo [g]indazole-3-carboxylic acid] | 0.32 | – |
| O=C(O)c1[nH]nc2c1COc1ccccc1-2 [Compound B10, 2,4-dihydrochromeno[4,3-c]pyrazole-3-carboxylic acid] | 1.35 | – |
| c1ccc(-c2n[nH]c3c2CCC3)cc1 [Compound B11, 3-phenyl-1,4,5,6-tetrahydrocyclopenta[c]pyrazole] | 3.4 | – |
| Nc1nc(CSc2n[nH]c(-c3ccccc3)n2)nc(Nc2ccccc2)n1 [Compound C1, N^2-phenyl-6-[(5-phenyl-1H-1,2,4-triazol-3-ylthio)methyl]-1,3,5-triazine-2,4-diamine] | 2.02 | – |
| COc1ccccc1-c1nnc(SCc2ccccn2)[nH]1 [Compound C2, 2-((5-(2-methoxyphenyl)-4H-1,2,4-triazol-3-ylthio)methyl)pyridine] | 3.79 | – |
| CCOC(=O)c1sc(NC(=O)CSc2nnc(-c3ccccc3OC)[nH]2)c(C#N)c1C [Compound C3, ethyl 4-cyano-5-{2-[5-(2-methoxyphenyl)-4H-1,2,4-triazol-3-ylthio]acetamide}-3-methylthiophene-2-carboxylate] | 5.39 | – |
| O=C(CSc1nnc(-c2ccccc2Br)[nH]1)NC(=O)NCc1ccco1 [Compound C4, 2-[5-(2-bromophenyl)-4H-1,2,4-triazol-3-ylthio]-N-(furan-2-ylmethylcarbamoyl)acetamide] | 2.54 | – |
| O=C(CSc1nnc(-c2ccccc2)[nH]1)NC(=O)NCc1ccco1 [Compound C5, N-(furan-2-ylmethylcarbamoyl)-2-(5-phenyl-4H-1,2,4-triazol-3-ylthio)acetamide] | 1.57 | – |
| Cn1ccnc1Sc1nc(Nc2ccccc2)nc(Nc2ccccc2)n1 [Compound E1] | – | 5.6 |
| O=C1C2CC=CCC2C(=O)N1c1nnc(Cc2ccccc2)[nH]1 (stereo not shown) [Compound E2] | 0.33 | – |
| CCCSc1nnc(NC(C)=O)[nH]1 [Compound E3] | 0.68 | – |

| Structure (SMILES) | IC50 [1] [µM] | Ki (human TNAP) [µM] |
| --- | --- | --- |
| [H]/N=C(C)\C(C#N)=C(\O)CSc1nnc(-c2ccccc2Br)[nH]1 [Compound E4] | 1.06 | – |
| COc1ccccc1-c1nnc(NC(C)=O)[nH]1 [Compound E5] | 1.99 | – |
| COc1cc(CSc2nnc[nH]2)c(OC)cc1CSc1nnc[nH]1 [Compound E6] | 1.99 | – |
| COc1cc(C(=O)Nc2cc(-c3ccccc3)n[nH]2)cc(OC)c1OC [Compound E7] | 2.39 | – |
| Clc1ccccc1-c1n[nH]c(-c2ccccc2)n1 [Compound E8] | 2.47 | – |
| COc1ccc(-c2nc3n(n2)C(=O)CC(c2ccco2)S3)cc1 (stereo not shown) [Compound E9] | 3.82 | – |
| CCOC(=O)C1C(=O)Nc2nc3ccccc3n2C1C(C)C (stereo not shown) [Compound E10] | 3.94 | – |
| C=CCSc1nc(-c2ccc(OC)cc2)n[nH]1 [Compound E11] | 4.35 | – |
| COc1ccc(OC)c(C(=O)CSc2nc3ccc[nH]c-3n2)c1 [Compound E12] | 4.68 | – |
| Oc1nc2cc(Cl)ccc2n1-c1ccccc1 [Compound E13] | 5.34 | – |
| Cn1ncc2c1ncn1c(-c3ccccc3Cl)nnc21 [Compound E14] | 5.83 | – |
| O=C(CSc1nc2ccc[nH]c-2n1)c1ccc(F)cc1 [Compound E15] | 6.26 | – |
| Cc1cccc(C)c1OCc1nnc2c3cnn(C)c3ncn12 [Compound E16] | 6.89 | – |
| Cc1ccc(-n2ccc3c2ncn2c(C)nnc32)cc1C [Compound E17] | 7.92 | – |
| CC(C)C1N=C2c3ccccc3N=C(SCC(=O)c3ccc(O)c(O)c3)N2C1=O (stereo not shown) [Compound E18] | 10.3 | – |
| Cc1ccsc1/C=c1\sc2ncnn2c1=O [Compound E19] | 11.3 | – |
| Cc1nc2c3cnn(-c4ccc(C)c(C)c4)c3ncn2n1 [Compound E20] | 13 | – |
| Cn1ncc2c1ncn1nc(CCc3ccccc3)nc21 [Compound E21] | 16 | – |
| CC1(C)Cc2c(sc3cc4n(c(=N)c23)CCCCC4)CO1 [Compound E22] | 9.5 | – |
| COc1ccc(C)cc1S(=O)(=O)Nc1cccnc1 [Compound F2] | 0.75 | – |
| CCOc1ccc(C)cc1S(=O)(=O)Nc1cccnc1 [Compound F3] | 1.93 | – |
| COc1ccc(OC)c(S(=O)(=O)Nc2ccc(O)c(Sc3nc[nH]n3)c2)c1 [Compound F4] | 8.45 | – |
| O=P(O)(O)c1ccccc1OCCOCCOc1ccccc1P(=O)(O)O [Compound G1] | 1.66 | – |
| O=P(O)(O)c1ccccc1OCCCCCOc1ccccc1P(=O)(O)O [Compound G2] | 2.05 | – |
| O=C(CCCn1c(SCC(=O)c2ccc(O)c(O)c2)nc2ccccc2c1=O)NCC1CCCO1 (stereo not shown) [Compound H1] | 4.66 | – |
| N#C/C(=C\c1ccc(O)c(O)c1)C(=O)NCCCc1ccccc1 [Compound H2] | 5.16 | – |
